Results on 6 compounds are retold here after ChEMBL document CHEMBL5233209, “A concise review of recent advances in anti-heart failure targets and its small molecules inhibitors in recent years” (Eur J Med Chem, 2020).

Data set [1] in a line: Tmax in human plasma. It counts as ADME, cell-free.
Data set [2] in a line: Half life in human. The format is ADME.
Data set [3] deals with cGMP-specific 3',5'-cyclic phosphodiesterase (Homo sapiens, UniProt O76074). Briefly: Inhibition of PDE-5A (unknown origin).
The target in another data set is Neprilysin (Homo sapiens, UniProt P08473). Briefly: Inhibition of neutral endopeptidase (unknown origin).
Chain of Neprilysin (P08473 whole entry): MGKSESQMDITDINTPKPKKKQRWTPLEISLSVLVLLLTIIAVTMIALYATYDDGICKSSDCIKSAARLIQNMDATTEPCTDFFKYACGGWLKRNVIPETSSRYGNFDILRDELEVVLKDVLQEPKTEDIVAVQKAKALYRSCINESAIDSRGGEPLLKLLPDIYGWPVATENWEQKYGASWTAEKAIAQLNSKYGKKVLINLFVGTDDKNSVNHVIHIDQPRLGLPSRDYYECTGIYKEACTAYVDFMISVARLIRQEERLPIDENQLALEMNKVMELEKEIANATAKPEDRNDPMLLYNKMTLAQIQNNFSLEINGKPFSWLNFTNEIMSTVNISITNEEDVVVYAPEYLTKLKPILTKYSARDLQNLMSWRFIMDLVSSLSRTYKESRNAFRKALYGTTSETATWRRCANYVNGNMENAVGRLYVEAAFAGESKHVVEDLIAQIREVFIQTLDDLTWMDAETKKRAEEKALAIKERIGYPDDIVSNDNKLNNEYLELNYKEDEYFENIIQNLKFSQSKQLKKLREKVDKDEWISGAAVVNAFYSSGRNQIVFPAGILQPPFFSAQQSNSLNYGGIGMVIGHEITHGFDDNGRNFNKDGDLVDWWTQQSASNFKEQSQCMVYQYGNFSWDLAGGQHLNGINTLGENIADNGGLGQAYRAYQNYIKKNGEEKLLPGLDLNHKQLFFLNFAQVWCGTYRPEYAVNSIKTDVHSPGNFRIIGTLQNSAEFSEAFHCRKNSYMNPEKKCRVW

With `CCCCC(=O)N(Cc1ccc(-c2ccccc2-c2nnn[nH]2)cc1)[C@H](C(=O)O)C(C)C`, in data set [1], the Tmax is 1.6 h. Moreover, the half-life in data set [2] is 12 h.
As to `CC(C)=CCc1c(O)c2c(c3c1OC(C)(C)C=C3)CC=C(c1ccc3c(c1)OCCO3)C2=O`, the IC50 in data set [3] was determined as 2.67 µmol.
Take `CCCCC(=O)N(Cc1ccc(-c2ccccc2-c2nnn[n-]2)cc1)[C@H](C(=O)[O-])C(C)C.CCOC(=O)[C@H](C)C[C@@H](Cc1ccc(-c2ccccc2)cc1)NC(=O)CCC(=O)[O-].O.O.[Na+].[Na+].[Na+]`: at Neprilysin, the IC50 worked out at 5 nM.
For `CC(C)=CCC1=C(O)c2c(occ(-c3ccc(O[N+](=O)[O-])cc3)c2=O)C2C=CC(C)(C)OC12` (configuration not stated), the IC50 in data set [3] is 0.5 µmol.
As to `C[C@H](C[C@@H](Cc1ccc(-c2ccccc2)cc1)NC(=O)CCC(=O)O)C(=O)O` [LBQ-657], in data set [2], the half-life was 21 h.
For `CCOC(=O)[C@H](C)C[C@@H](Cc1ccc(-c2ccccc2)cc1)NC(=O)CCC(=O)O` [SACUBITRIL], the Tmax in data set [1] stood at 0.5 h.
